US20210107874A1, “PHARMACEUTICAL FORMULATION OF CROTONYLAMINOPYRIDINE SALT” (priority 2017, published 2021)
Where a name gives a salt, the structure may show the parent alone.

Legend:
[1] = Solubility of synthesized tartrate salt and free base of compound 4; format: physicochemical; conditions: synthesized tartrate salt; read-out: solubility (can be dissolved)
Procedure: The free base of compound 4 has a solubility of 0.8 mg/ml

Cooperia oncophora = assay: In vivo efficacy in challenged calves, percent reduction of nematodes; conditions: subcutaneous injection
Procedure: (§1) Calves of 2-6 months of age were challenged with Ostertagia ostertagi (approx. 20,000 larvae L3/calf) on Day 0 and Cooperia oncophora (approx. 20,000 larvae L3/calf) on Day 1 by oral drench. At day 28, animals were treated by subcutaneous injection at a dose of 0.5 mg/kg (resp. 0.75, 1, 1.5 or 2.5 mg/kg) of a solution of compound 5. On days 35-37 animals were necropsied for extraction and counting of nematodes present. Efficacy was calculated as the percent reduction of nematodes compared to the control group. For calculation the geometric mean of the nematode numbers in treatment and control group was determined (7 animals in treatment group, 8 animals in control group). The solution A used for injection contained in 1 ml: compound 5 (100 mg), L-tartaric acid 52.6 mg, propylene glycol 400 mg, benzyl alcohol 20 mg, water for injection up to 1 ml. A control group was treated by injection of vehicle only. The solution B used for injection contained in 1 ml: (50 mg Compound 5; 24.74 mg L-tartaric acid, water for injection up to 1 ml).

Ostertagia ostertagi = assay: as above; conditions: subcutaneous injection
Procedure: as §1

[2] = Solution A (with propylene glycol), 0.5 mg/kg bodyweight
[3] = Solution A (with propylene glycol), 1.5 mg/kg bodyweight
[4] = Solution A (with propylene glycol), 2.5 mg/kg bodyweight
[5] = Solution B (without propylene glycol), 0.75 mg/kg bodyweight
[6] = Solution B (without propylene glycol), 1 mg/kg bodyweight

Row | SMILES | solubility [1] [mg/mL] | reduction of C. oncophora (Cooperia oncophora; [2]) [%] | reduction of C. oncophora (Cooperia oncophora; [3]) [%] | reduction of C. oncophora (Cooperia oncophora; [4]) [%] | reduction of C. oncophora (Cooperia oncophora; [5]) [%] | reduction of C. oncophora (Cooperia oncophora; [6]) [%] | reduction of O. ostertagi (Ostertagia ostertagi; [2]) [%] | reduction of O. ostertagi (Ostertagia ostertagi; [3]) [%] | reduction of O. ostertagi (Ostertagia ostertagi; [4]) [%] | reduction of O. ostertagi (Ostertagia ostertagi; Solution B (without propylene glycol), 0.5 mg/kg bodyweight) [%] | reduction of O. ostertagi (Ostertagia ostertagi; [5]) [%] | reduction of O. ostertagi (Ostertagia ostertagi; [6]) [%]
1 | CCOc1cc(NCCNC(=O)/C=C/C(F)(F)F)ccn1 [tartrate salt of compound 4, tartrate salt of (E)-N-[2-[(2-ethoxy-4-pyridyl)amino]ethyl]-4,4,4-trifluoro-but-2-enamide] | 145 | – | – | – | – | – | – | – | – | – | – | –
2 | COc1cc(NCCNC(=O)/C=C/C(C)(F)F)ccn1 [tartrate salt of compound 5] | – | 97.0 | 100 | 100 | 94.0 | 96.8 | 98.7 | 100 | 99.8 | 78.6 | 99.8 | 99.9
